In assay [1] the target is T1, Frizzled-7 (Homo sapiens, UniProt O75084). Type of assay: cell-based. Conditions: cho.
Assay [2] deals with T1, Frizzled-7. Kind of assay: biochemical. Type of assay: cell-based, CHO. Conditions: read-out: Kd.
Assay [3] addresses T1, Frizzled-7. Conditions: CHO.
Description: Binding affinity to recombinant human Frizzled-7 (Gln33 to Leu185 residues)/human IgG1 chimeric protein expressed in CHO cells assessed as association rate constant by SPR assay

Bridge positions count the residues as written; N and C are the ends. Square brackets hold non-standard residues; d marks the D form. Peptide text beside a SMILES is read from it. I, II: the chains in the order shown. Ala(cPent) = N[C@@H](CC1CCCC1)C(=O)O; Nva(3-Et) = CCC(CC)[C@H](N)C(=O)O; Cha = N[C@@H](CC1CCCCC1)C(=O)O; Cba = N[C@@H](CC1CCC1)C(=O)O; Nle = CCCC[C@H](N)C(=O)O

With `CSCC[C@H](NC(=O)[C@@H](NC(=O)[C@H](Cc1cnc[nH]1)NC(=O)[C@H](CSSC[C@H](NC(=O)[C@H](Cc1c[nH]c2ccccc12)NC(=O)[C@H](Cc1ccccc1)NC(=O)[C@H](CCCCN)NC(=O)[C@H](CC(C)C)NC(=O)[C@H](CC(=O)O)NC(=O)[C@H](CC(=O)O)NC(=O)[C@H](CO)NC(C)=O)C(=O)N[C@@H](Cc1cnc[nH]1)C(=O)N[C@H](C(=O)N[C@@H](CCSC)C(=O)N[C@@H](Cc1ccc(O)cc1)C(N)=O)C(C)C)NC(=O)[C@H](Cc1c[nH]c2ccccc12)NC(=O)[C@H](Cc1ccccc1)NC(=O)[C@H](CCCCN)NC(=O)[C@H](CC(C)C)NC(=O)[C@H](CC(=O)O)NC(=O)[C@H](CC(=O)O)NC(=O)[C@H](CO)NC(C)=O)C(C)C)C(=O)N[C@@H](Cc1ccc(O)cc1)C(N)=O` (I: Ac-SDDLKFWCHVMY-NH2 / II: Ac-SDDLKFWCHVMY-NH2; disulfide I:8-II:8), the Kd on Frizzled-7 [1] stood at 1.33 ×10⁻³ /s; on Frizzled-7 [2] it was 0.157 nM. Moreover, the Ka on Frizzled-7 [3] was found to be 85.6 ×10⁵ /M/s.

Consider `CSCC[C@H](NC(=O)[C@@H](NC(=O)[C@H](Cc1cnc[nH]1)NC(=O)[C@H](CSSC[C@H](NC(=O)[C@H](Cc1c[nH]c2ccccc12)NC(=O)[C@H](CC(C)C)NC(=O)[C@H](CCCCN)NC(=O)[C@H](CC(C)C)NC(=O)[C@H](CC(=O)O)NC(=O)[C@H](CC(=O)O)NC(=O)[C@H](CO)NC(C)=O)C(=O)N[C@@H](Cc1cnc[nH]1)C(=O)N[C@H](C(=O)N[C@@H](CCSC)C(=O)N[C@@H](Cc1ccc(O)cc1)C(N)=O)C(C)C)NC(=O)[C@H](Cc1c[nH]c2ccccc12)NC(=O)[C@H](CC(C)C)NC(=O)[C@H](CCCCN)NC(=O)[C@H](CC(C)C)NC(=O)[C@H](CC(=O)O)NC(=O)[C@H](CC(=O)O)NC(=O)[C@H](CO)NC(C)=O)C(C)C)C(=O)N[C@@H](Cc1ccc(O)cc1)C(N)=O` (I: Ac-SDDLKLWCHVMY-NH2 / II: Ac-SDDLKLWCHVMY-NH2; disulfide I:8-II:8), for which the Kd was found to be 0.58 ×10⁻³ /s at Frizzled-7 [1] and 0.142 nM at Frizzled-7 [2]. This compound also registered a Ka on Frizzled-7 [3] of 55.6 ×10⁵ /M/s.

With `CSCC[C@H](NC(=O)[C@@H](NC(=O)[C@H](Cc1cnc[nH]1)NC(=O)[C@H](CSSC[C@H](NC(=O)[C@H](Cc1c[nH]c2ccccc12)NC(=O)[C@H](Cc1ccccc1)NC(=O)[C@H](CCC(=O)O)NC(=O)[C@H](CC1CCCC1)NC(=O)[C@H](CC(=O)O)NC(=O)[C@H](CC(=O)O)NC(=O)[C@H](CO)NC(C)=O)C(=O)N[C@@H](Cc1cnc[nH]1)C(=O)N[C@H](C(=O)N[C@@H](CCSC)C(=O)N[C@@H](Cc1ccc(O)cc1)C(N)=O)C(C)C)NC(=O)[C@H](Cc1c[nH]c2ccccc12)NC(=O)[C@H](Cc1ccccc1)NC(=O)[C@H](CCC(=O)O)NC(=O)[C@H](CC1CCCC1)NC(=O)[C@H](CC(=O)O)NC(=O)[C@H](CC(=O)O)NC(=O)[C@H](CO)NC(C)=O)C(C)C)C(=O)N[C@@H](Cc1ccc(O)cc1)C(N)=O` (I: Ac-SDD[Ala(cPent)]EFWCHVMY-NH2 / II: Ac-SDD[Ala(cPent)]EFWCHVMY-NH2; disulfide I:8-II:8), the figures for the Kd on Frizzled-7 [1] and at Frizzled-7 [2] were 9.9 ×10⁻³ /s and 2.1 nM, respectively. Besides, the Ka at Frizzled-7 [3] came out at 46.5 ×10⁵ /M/s.

For the compound `CSCC[C@H](NC(=O)[C@@H](NC(=O)[C@H](Cc1cnc[nH]1)NC(=O)[C@H](CSSC[C@H](NC(=O)[C@H](Cc1c[nH]c2ccccc12)NC(=O)[C@H](Cc1ccccc1)NC(=O)[C@H](CCC(=O)O)NC(=O)[C@H](CC1CCC1)NC(=O)[C@H](CC(=O)O)NC(=O)[C@H](CC(=O)O)NC(=O)[C@H](CO)NC(C)=O)C(=O)N[C@@H](Cc1cnc[nH]1)C(=O)N[C@H](C(=O)N[C@@H](CCSC)C(=O)N[C@@H](Cc1ccc(O)cc1)C(N)=O)C(C)C)NC(=O)[C@H](Cc1c[nH]c2ccccc12)NC(=O)[C@H](Cc1ccccc1)NC(=O)[C@H](CCC(=O)O)NC(=O)[C@H](CC1CCC1)NC(=O)[C@H](CC(=O)O)NC(=O)[C@H](CC(=O)O)NC(=O)[C@H](CO)NC(C)=O)C(C)C)C(=O)N[C@@H](Cc1ccc(O)cc1)C(N)=O` (I: Ac-SDD[Cba]EFWCHVMY-NH2 / II: Ac-SDD[Cba]EFWCHVMY-NH2; disulfide I:8-II:8), the figures for the Kd on Frizzled-7 [1] and on Frizzled-7 [2] were 9.7 ×10⁻³ /s and 20.3 nM, respectively. The compound further had a Ka at Frizzled-7 [3] of 4.6 ×10⁵ /M/s.

With `CSCC[C@H](NC(=O)[C@@H](NC(=O)[C@H](Cc1cnc[nH]1)NC(=O)[C@H](CSSC[C@H](NC(=O)[C@H](Cc1c[nH]c2ccccc12)NC(=O)[C@H](Cc1ccccc1)NC(=O)[C@H](CCC(=O)O)NC(=O)[C@H](CC1CCCCC1)NC(=O)[C@H](CC(=O)O)NC(=O)[C@H](CC(=O)O)NC(=O)[C@H](CO)NC(C)=O)C(=O)N[C@@H](Cc1cnc[nH]1)C(=O)N[C@H](C(=O)N[C@@H](CCSC)C(=O)N[C@@H](Cc1ccc(O)cc1)C(N)=O)C(C)C)NC(=O)[C@H](Cc1c[nH]c2ccccc12)NC(=O)[C@H](Cc1ccccc1)NC(=O)[C@H](CCC(=O)O)NC(=O)[C@H](CC1CCCCC1)NC(=O)[C@H](CC(=O)O)NC(=O)[C@H](CC(=O)O)NC(=O)[C@H](CO)NC(C)=O)C(C)C)C(=O)N[C@@H](Cc1ccc(O)cc1)C(N)=O` (I: Ac-SDD[Cha]EFWCHVMY-NH2 / II: Ac-SDD[Cha]EFWCHVMY-NH2; disulfide I:8-II:8), the Kd came to 75.1 ×10⁻³ /s on Frizzled-7 [1] and 13.7 nM on Frizzled-7 [2]. Moreover, the Ka on Frizzled-7 [3] turned out to be 56.7 ×10⁵ /M/s.

On to `CCCC[C@H](NC(=O)[C@H](CC(=O)O)NC(=O)[C@H](CC(=O)O)NC(=O)[C@H](CO)NC(C)=O)C(=O)N[C@@H](CCC(=O)O)C(=O)N[C@@H](Cc1ccccc1)C(=O)N[C@@H](Cc1c[nH]c2ccccc12)C(=O)N[C@@H](CSSC[C@H](NC(=O)[C@H](Cc1c[nH]c2ccccc12)NC(=O)[C@H](Cc1ccccc1)NC(=O)[C@H](CCC(=O)O)NC(=O)[C@H](CCCC)NC(=O)[C@H](CC(=O)O)NC(=O)[C@H](CC(=O)O)NC(=O)[C@H](CO)NC(C)=O)C(=O)N[C@@H](Cc1cnc[nH]1)C(=O)N[C@H](C(=O)N[C@@H](CCSC)C(=O)N[C@@H](Cc1ccc(O)cc1)C(N)=O)C(C)C)C(=O)N[C@@H](Cc1cnc[nH]1)C(=O)N[C@H](C(=O)N[C@@H](CCSC)C(=O)N[C@@H](Cc1ccc(O)cc1)C(N)=O)C(C)C` (I: Ac-SDD[Nle]EFWCHVMY-NH2 / II: Ac-SDD[Nle]EFWCHVMY-NH2; disulfide I:8-II:8), for which the Kd on Frizzled-7 [1] was 23.1 ×10⁻³ /s; on Frizzled-7 [2] it was 5.4 nM. This compound also returned a Ka on Frizzled-7 [3] of 42.8 ×10⁵ /M/s.

Consider `CCC(CC)[C@H](NC(=O)[C@H](CC(=O)O)NC(=O)[C@H](CC(=O)O)NC(=O)[C@H](CO)NC(C)=O)C(=O)N[C@@H](CCC(=O)O)C(=O)N[C@@H](Cc1ccccc1)C(=O)N[C@@H](Cc1c[nH]c2ccccc12)C(=O)N[C@@H](CSSC[C@H](NC(=O)[C@H](Cc1c[nH]c2ccccc12)NC(=O)[C@H](Cc1ccccc1)NC(=O)[C@H](CCC(=O)O)NC(=O)[C@@H](NC(=O)[C@H](CC(=O)O)NC(=O)[C@H](CC(=O)O)NC(=O)[C@H](CO)NC(C)=O)C(CC)CC)C(=O)N[C@@H](Cc1cnc[nH]1)C(=O)N[C@H](C(=O)N[C@@H](CCSC)C(=O)N[C@@H](Cc1ccc(O)cc1)C(N)=O)C(C)C)C(=O)N[C@@H](Cc1cnc[nH]1)C(=O)N[C@H](C(=O)N[C@@H](CCSC)C(=O)N[C@@H](Cc1ccc(O)cc1)C(N)=O)C(C)C` (I: Ac-SDD[Nva(3-Et)]EFWCHVMY-NH2 / II: Ac-SDD[Nva(3-Et)]EFWCHVMY-NH2; disulfide I:8-II:8), for which the Kd on Frizzled-7 [1] was 29.2 ×10⁻³ /s; on Frizzled-7 [2] it was 3.9 nM. This compound returned a Ka on Frizzled-7 [3] of 73.6 ×10⁵ /M/s.

The values are drawn from ChEMBL document CHEMBL4373723 (J Med Chem, 2019).
